Test results reported in paper PMC2798733 (Bioorganic & medicinal chemistry, 2008).
pKi: −log10 of the molar value.

Legend:
rat TRPV1 [1] = biological target: T1, rat TRPV1 (Rattus norvegicus, UniProt O35433); assay: biochemical; format: binding
rat TRPV1 [2] = biological target: T1, rat TRPV1; conditions: for decrease in agonism on replacing or removing the 3-methoxy group of compound 1: comparator not given
[3] = tested on: transient receptor potential vanilloid 1 (TRPV1) channel; conditions: cited from earlier work
TRPV1 = conditions: cited from earlier work
[4] = cited from earlier work

T1 sequence (O35433 whole entry): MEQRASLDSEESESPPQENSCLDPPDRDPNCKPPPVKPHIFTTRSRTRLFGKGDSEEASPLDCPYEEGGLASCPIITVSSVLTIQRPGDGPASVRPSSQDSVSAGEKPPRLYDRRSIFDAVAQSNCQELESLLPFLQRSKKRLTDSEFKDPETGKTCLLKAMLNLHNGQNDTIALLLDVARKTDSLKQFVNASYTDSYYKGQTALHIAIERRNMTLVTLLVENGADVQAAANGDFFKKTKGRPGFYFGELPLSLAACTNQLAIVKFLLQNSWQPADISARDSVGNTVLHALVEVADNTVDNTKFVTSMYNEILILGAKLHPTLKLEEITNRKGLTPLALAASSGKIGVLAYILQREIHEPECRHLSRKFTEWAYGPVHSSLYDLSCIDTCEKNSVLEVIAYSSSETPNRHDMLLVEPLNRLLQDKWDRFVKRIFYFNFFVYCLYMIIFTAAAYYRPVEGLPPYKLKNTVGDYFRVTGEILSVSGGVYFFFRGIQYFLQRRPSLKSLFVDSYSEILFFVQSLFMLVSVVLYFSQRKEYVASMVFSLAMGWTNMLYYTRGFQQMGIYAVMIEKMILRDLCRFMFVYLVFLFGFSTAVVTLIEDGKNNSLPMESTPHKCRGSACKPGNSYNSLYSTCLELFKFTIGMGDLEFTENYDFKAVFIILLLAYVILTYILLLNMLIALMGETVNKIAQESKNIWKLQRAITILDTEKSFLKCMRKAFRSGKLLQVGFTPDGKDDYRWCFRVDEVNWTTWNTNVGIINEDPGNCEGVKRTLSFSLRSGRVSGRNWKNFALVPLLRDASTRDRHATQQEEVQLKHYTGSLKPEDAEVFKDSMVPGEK

C=C(C)[C@@]12C[C@@H](C)[C@@]34OC(Cc5ccccc5)(O[C@@H]1[C@@H]3C=C(COC(=O)Cc1ccc(NS(C)(=O)=O)c(OC)c1)C[C@]1(O)C(=O)C(C)=C[C@@H]41)O2 [Compound 1, 3-Methoxy-4-(methylsulfonylamino) analogue]
reduction in binding affinity compared to RTX (rat TRPV1 [1]): 5 fold | enhancement of functional activity (agonism) compared to RTX (rat TRPV1 [2]): 2.5 fold

C=C(C)[C@@]12C[C@@H](C)[C@@]34OC(Cc5ccccc5)(O[C@@H]1[C@@H]3C=C(COC(=O)Cc1ccc(NS(C)(=O)=O)c(F)c1)C[C@]1(O)C(=O)C(C)=C[C@@H]41)O2 [Compound 2, 3-Fluoro-4-(methylsulfonylamino) analogue]
decrease in agonism on replacing or removing the 3-methoxy group of compound 1 (rat TRPV1 [2]): 9 fold

C=C(C)[C@@]12C[C@@H](C)[C@@]34OC(Cc5ccccc5)(O[C@@H]1[C@@H]3C=C(COC(=O)Cc1ccc(NS(C)(=O)=O)cc1)C[C@]1(O)C(=O)C(C)=C[C@@H]41)O2 [Compound 3, 4-(Methylsulfonylamino) analogue]
decrease in agonism on replacing or removing the 3-methoxy group of compound 1 (rat TRPV1 [2]): 7 fold

C=C(C)[C@@]12C[C@@H](C)[C@@]34OC(Cc5ccccc5)(O[C@@H]1[C@@H]3C=C(COC(=O)Cc1ccccc1F)C[C@]1(O)C(=O)C(C)=C[C@@H]41)O2 [Compound 4, 2-Fluoro analogue]
pKi (rat TRPV1 [1]): 9.14

C=C(C)[C@@]12C[C@@H](C)[C@@]34OC(Cc5ccccc5)(O[C@@H]1[C@@H]3C=C(COC(=O)Cc1ccc(F)cc1F)C[C@]1(O)C(=O)C(C)=C[C@@H]41)O2 [Compound 8, 2,4-Difluoro analogue]
relative agonism compared to RTX (rat TRPV1 [2]; compared to RTX): 0.15

C=C(C)[C@@]12C[C@@H](C)[C@@]34OC(Cc5ccccc5)(O[C@@H]1[C@@H]3C=C(COC(=O)Cc1cc(F)ccc1F)C[C@]1(O)C(=O)C(C)=C[C@@H]41)O2 [Compound 9, 2,5-Difluoro analogue]
relative affinity compared to RTX (rat TRPV1 [1]; compared to RTX): 0.1

C=C(C)[C@@]12C[C@@H](C)[C@@]34OC(Cc5ccccc5)(O[C@@H]1[C@@H]3C=C(CNC(=O)Cc1ccc(NS(C)(=O)=O)cc1)C[C@]1(O)C(=O)C(C)=C[C@@H]41)O2 [Compound 14, Amide analogue]
drop in binding, amide versus ester compound 3 (rat TRPV1 [1]; compared to compound 3): 50 fold | drop in agonism, amide versus ester compound 3 (rat TRPV1 [2]; compared to compound 3): 210 fold

C=C(C)[C@]12C[C@@H](C)[C@@]34O[C@](Cc5ccccc5)(O[C@@H]1[C@@H]3C=C(COC(=O)Cc1ccc(O)c(OC)c1)C[C@]1(O)C(=O)C(C)=C[C@@H]41)O2 [RTX, Resiniferatoxin]
greater potency than the prototypic agonist capsaicin [3]: 10^3- to 10^4 fold

C=C(C)[C@]12C[C@@H](C)[C@@]34O[C@](Cc5ccccc5)(O[C@@H]1[C@@H]3C=C(COC(=O)Cc1ccc(O)cc1)C[C@]1(O)C(=O)C(C)=C[C@@H]41)O2 [tinyatoxin]
decrease in binding potency compared to RTX (TRPV1): 3 fold | loss of biological potency compared to RTX [4]: 6 fold
